# ChEMBL document CHEMBL4373707 (J Med Chem, 2019)
# How the values were obtained:
# Integrin alpha-V/beta-1 = Integrin alpha-V/beta-1 (Homo sapiens, UniProt P05556+P06756)
# Description: Inhibition of integrin alphavbeta1 (unknown origin) expressed in human A549 cells assessed as reduction in cell adhesion to GST-LAP1 (242 to 252 amino acids) incubated for 30 mins by fluorescent probe BCECF-AM based fluorescence assay
# Integrin alpha-V/beta-3 = Integrin alpha-V/beta-3 (Homo sapiens, UniProt P05106+P06756)
# Description: Inhibition of integrin alphavbeta3 (unknown origin) expressed in human K562 cells assessed as reduction in cell adhesion to GST-LAP1 (242 to 252 amino acids) incubated for 30 mins by fluorescent probe BCECF-AM based fluorescence assay
# Integrin alpha-V/beta-5 = Integrin alpha-V/beta-5 (Homo sapiens, UniProt P06756+P18084)
# Description: Inhibition of integrin alphavbeta5 (unknown origin) expressed in human K562 cells assessed as reduction in cell adhesion to human vitronectin incubated for 30 mins by fluorescent probe BCECF-AM based fluorescence assay
# Integrin alpha-V/beta-8 = Integrin alpha-V/beta-8 (Homo sapiens, UniProt P06756+P26012)
# Description: Inhibition of integrin alphavbeta8 (unknown origin) expressed in human K562 cells assessed as reduction in cell adhesion to GST-LAP1 (242 to 252 amino acids) incubated for 30 mins by fluorescent probe BCECF-AM based fluorescence assay
# Integrin alpha-V/beta-6 [1] = target: T1, Integrin alpha-V/beta-6 (Homo sapiens, UniProt P06756+P18564)
# Description: Inhibition of integrin alphavbeta6 (unknown origin) expressed in human K562 cells assessed as reduction in cell adhesion to GST-LAP1 (242 to 252 amino acids) incubated for 30 mins by fluorescent probe BCECF-AM based fluorescence assay
# [2] = buffer
# Description: (§1) Aqueous kinetic solubility of the compund by CLND method
# physchem [3] = conditions: buffer, pH 7.4
# Description: Lipophilicity, logD of the compound at pH 7.4 by chromatographic method
# [4] = Inhibition of integrin alphavbeta8 (unknown origin) by radioligand binding assay; parameters: species or system Homo sapiens
# [5] = Stability in cryopreserved Wistar-Han rat hepatocytes assessed as compound turnover rate at 0.5 uM measured up to 60 mins by LC-MS/MS analysis; type: ADME, cell-based, Hepatocyte; conditions: 1 h
# [6] = Stability in cryopreserved human hepatocytes at 0.5 uM measured up to 60 mins by LC-MS/MS analysis; type: ADME, cell-based, Hepatocyte; conditions: 1 h
# [7] = Blood clearance in dual cannulated Wistar-Han rat at 1 mg/kg, iv administered as infusion for 30 mins and measured up to 24 hrs by LC-MS/MS analysis; type: ADME, organism-based; conditions: whole blood
# [8] = Unbound blood clearance in dual cannulated Wistar-Han rat at 1 mg/kg, iv administered as infusion for 30 mins and measured up to 24 hrs by LC-MS/MS analysis; type: ADME, organism-based; conditions: in vivo
# [9] = Volume of distribution in dual cannulated Wistar-Han rat at 1 mg/kg, iv administered as infusion for 30 mins and measured up to 24 hrs by LC-MS/MS analysis; type: ADME, organism-based; conditions: in vivo
# Integrin alpha-V/beta-6 [10] = target: T1, Integrin alpha-V/beta-6; assay: Inhibition of integrin alphavbeta6 (unknown origin) by radioligand binding assay; type: protein-complex assay
# Homo sapiens [11] = species on record: Homo sapiens; assay: Selectivity ratio of IC50 for integrin alphavbeta1 (unknown origin) expressed in human A549 cells to IC50 for integrin alphavbeta6 (unknown origin) expressed in human K562 cells; type: cell-based
# Homo sapiens [12] = species on record: Homo sapiens; assay: Selectivity ratio of IC50 for integrin alphavbeta3 (unknown origin) expressed in human K562 cells to IC50 for integrin alphavbeta6 (unknown origin) expressed in human K562 cells; type: cell-based
# Homo sapiens [13] = species on record: Homo sapiens; assay: Selectivity ratio of IC50 for integrin alphavbeta5 (unknown origin) expressed in human K562 cells to IC50 for integrin alphavbeta6 (unknown origin) expressed in human K562 cells; type: cell-based
# Homo sapiens [14] = species on record: Homo sapiens; assay: Selectivity ratio of IC50 for integrin alphavbeta8 (unknown origin) expressed in human K562 cells to IC50 for integrin alphavbeta6 (unknown origin) expressed in human K562 cells; type: cell-based
# [15] = Inhibition of human LAP binding to human integrin alphavbeta8 after 2 hrs
# [16] = target: Voltage-gated inwardly rectifying potassium channel KCNH2 (Homo sapiens, UniProt Q12809); assay: Inhibition of human ERG expressed in CHO-K1 cells at -80 mV holding potential by IonWorks barracuda automated electrophysiology method; type: cell-based
# [17] = Protein binding in rat blood assessed as unbound fraction at 1 ug/ml incubated for 4 hrs by LC-MS/MS-based rapid equilibrium dialysis method; type: ADME, tissue-based; conditions: at 1 µg/mL
# [18] = Protein binding in human blood assessed as fraction unbound at 1 ug/ml incubated for 4 hrs by LC-MS/MS-based rapid equilibrium dialysis method; type: ADME, tissue-based; conditions: at 1 µg/mL
# [19] = Protein binding in human lung homogenates assessed as fraction unbound at 1 ug/ml incubated for 4 hrs by LC-MS/MS-based rapid equilibrium dialysis method; type: ADME, tissue-based; conditions: at 1 µg/mL
# [20] = Drug metabolism assessed as unmethylated (3S)-3-[3-(3,5-dimethylpyrazol-1-yl)phenyl]-4-[(3R)-3-[2-(5,6,7,8-tetrahydro-1,8-naphthyridin-2-yl)ethyl]pyrrolidin-1-yl]butanoic acid hydrochloride formation
# [21] = Blood clearance in dual cannulated Wistar-Han rat at 1 mg/kg, iv administered as infusion for 60 mins and measured up to 7 hrs by LC-MS/MS analysis; type: ADME, organism-based; conditions: whole blood
# [22] = Unbound blood clearance in dual cannulated Wistar-Han rat at 1 mg/kg, iv administered as infusion for 60 mins and measured up to 7 hrs by LC-MS/MS analysis; type: ADME, organism-based; conditions: in vivo
# [23] = Volume of distribution in dual cannulated Wistar-Han rat at 1 mg/kg, iv administered as infusion for 60 mins and measured up to 7 hrs by LC-MS/MS analysis; type: ADME, organism-based; conditions: in vivo
# [24] = Half-life in dual cannulated Wistar-Han rat at 1 mg/kg, iv administered as infusion for 60 mins and measured up to 7 hrs by LC-MS/MS analysis; type: ADME, organism-based; conditions: in vivo
# in vitro = conditions: not told
# Description: Permeability of the compound
# physchem [25] = conditions: buffer
# Description: as §1
# Sequence of Integrin alpha-V/beta-5 (P06756 31-889 limits assumed): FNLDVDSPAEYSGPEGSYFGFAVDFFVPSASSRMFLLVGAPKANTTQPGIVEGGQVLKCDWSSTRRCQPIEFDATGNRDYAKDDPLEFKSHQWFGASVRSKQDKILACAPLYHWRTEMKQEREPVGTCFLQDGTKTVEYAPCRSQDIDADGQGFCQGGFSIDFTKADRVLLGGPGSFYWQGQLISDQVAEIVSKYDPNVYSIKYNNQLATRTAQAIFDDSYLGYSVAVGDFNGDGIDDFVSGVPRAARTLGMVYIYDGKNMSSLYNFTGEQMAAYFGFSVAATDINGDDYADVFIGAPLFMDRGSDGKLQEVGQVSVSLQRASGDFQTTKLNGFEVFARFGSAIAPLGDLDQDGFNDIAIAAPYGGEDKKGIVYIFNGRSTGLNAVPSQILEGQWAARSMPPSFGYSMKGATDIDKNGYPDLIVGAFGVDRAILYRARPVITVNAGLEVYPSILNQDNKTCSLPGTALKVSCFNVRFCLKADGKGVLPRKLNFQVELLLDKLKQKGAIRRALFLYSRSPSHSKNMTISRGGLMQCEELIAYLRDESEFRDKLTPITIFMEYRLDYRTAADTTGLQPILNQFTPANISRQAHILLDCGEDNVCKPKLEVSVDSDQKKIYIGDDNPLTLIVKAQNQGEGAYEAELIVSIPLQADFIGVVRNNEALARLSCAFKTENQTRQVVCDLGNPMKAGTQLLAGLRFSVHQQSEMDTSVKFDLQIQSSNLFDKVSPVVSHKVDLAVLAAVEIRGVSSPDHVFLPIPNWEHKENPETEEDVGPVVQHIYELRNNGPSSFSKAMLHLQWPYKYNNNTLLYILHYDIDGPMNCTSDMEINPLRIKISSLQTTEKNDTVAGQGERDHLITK
# Sequence of Integrin alpha-V/beta-5 (P06756 891-1048 limits assumed): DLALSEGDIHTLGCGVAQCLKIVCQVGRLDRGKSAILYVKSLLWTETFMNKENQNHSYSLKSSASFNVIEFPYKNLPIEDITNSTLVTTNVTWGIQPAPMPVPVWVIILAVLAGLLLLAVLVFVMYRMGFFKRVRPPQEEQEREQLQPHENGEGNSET
# Sequence of Integrin alpha-V/beta-5 (P18084 24-799 limits assumed): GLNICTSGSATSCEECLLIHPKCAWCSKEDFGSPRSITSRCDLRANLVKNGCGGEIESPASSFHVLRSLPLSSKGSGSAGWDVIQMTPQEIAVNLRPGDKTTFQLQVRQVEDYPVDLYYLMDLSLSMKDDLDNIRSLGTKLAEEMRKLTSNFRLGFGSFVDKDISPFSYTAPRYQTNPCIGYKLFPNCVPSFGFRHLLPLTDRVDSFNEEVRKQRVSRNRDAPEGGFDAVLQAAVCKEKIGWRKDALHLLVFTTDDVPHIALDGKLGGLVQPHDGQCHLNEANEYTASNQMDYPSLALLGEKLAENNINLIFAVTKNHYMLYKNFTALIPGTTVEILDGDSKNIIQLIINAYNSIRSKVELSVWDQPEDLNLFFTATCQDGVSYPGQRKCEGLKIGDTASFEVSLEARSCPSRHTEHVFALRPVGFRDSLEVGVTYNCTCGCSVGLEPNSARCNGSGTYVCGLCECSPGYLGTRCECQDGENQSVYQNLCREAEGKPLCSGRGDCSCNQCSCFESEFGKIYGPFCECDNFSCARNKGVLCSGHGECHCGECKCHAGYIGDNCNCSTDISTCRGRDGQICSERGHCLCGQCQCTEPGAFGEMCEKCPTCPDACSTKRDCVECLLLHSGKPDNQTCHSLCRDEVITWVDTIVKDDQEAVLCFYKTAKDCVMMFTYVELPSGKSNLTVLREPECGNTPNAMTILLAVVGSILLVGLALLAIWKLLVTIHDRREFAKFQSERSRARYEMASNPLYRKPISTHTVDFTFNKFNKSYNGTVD
# Sequence of Integrin alpha-V/beta-8 (P06756 31-889 limits assumed): as the sequence (P06756 31-889 limits assumed) above
# Sequence of Integrin alpha-V/beta-8 (P06756 891-1048 limits assumed): as the sequence (P06756 891-1048 limits assumed) above
# Sequence of Integrin alpha-V/beta-8 (P26012 43-769 limits assumed): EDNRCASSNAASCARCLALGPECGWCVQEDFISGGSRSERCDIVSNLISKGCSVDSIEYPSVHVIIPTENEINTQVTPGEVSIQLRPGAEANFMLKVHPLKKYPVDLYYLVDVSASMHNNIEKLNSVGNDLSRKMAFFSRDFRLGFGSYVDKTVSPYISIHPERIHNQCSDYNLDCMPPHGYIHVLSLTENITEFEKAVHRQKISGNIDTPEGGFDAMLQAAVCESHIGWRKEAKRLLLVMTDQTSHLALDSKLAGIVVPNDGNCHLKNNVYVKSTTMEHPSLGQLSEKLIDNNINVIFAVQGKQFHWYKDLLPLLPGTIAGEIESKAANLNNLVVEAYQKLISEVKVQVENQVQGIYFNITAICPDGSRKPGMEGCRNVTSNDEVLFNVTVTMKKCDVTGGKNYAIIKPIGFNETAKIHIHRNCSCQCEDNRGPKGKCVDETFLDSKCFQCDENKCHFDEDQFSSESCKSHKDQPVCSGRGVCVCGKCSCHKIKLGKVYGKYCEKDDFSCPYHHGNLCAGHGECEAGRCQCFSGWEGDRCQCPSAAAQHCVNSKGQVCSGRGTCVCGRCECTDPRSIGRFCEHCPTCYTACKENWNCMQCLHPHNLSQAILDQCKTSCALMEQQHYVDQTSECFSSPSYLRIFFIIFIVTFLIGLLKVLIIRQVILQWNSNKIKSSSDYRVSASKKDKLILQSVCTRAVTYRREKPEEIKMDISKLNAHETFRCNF
# T1 sequence (P06756 31-889 limits assumed): as the sequence (P06756 31-889 limits assumed) above
# T1 sequence (P06756 891-1048 limits assumed): as the sequence (P06756 891-1048 limits assumed) above
# T1 sequence (P18564 22-788 limits assumed): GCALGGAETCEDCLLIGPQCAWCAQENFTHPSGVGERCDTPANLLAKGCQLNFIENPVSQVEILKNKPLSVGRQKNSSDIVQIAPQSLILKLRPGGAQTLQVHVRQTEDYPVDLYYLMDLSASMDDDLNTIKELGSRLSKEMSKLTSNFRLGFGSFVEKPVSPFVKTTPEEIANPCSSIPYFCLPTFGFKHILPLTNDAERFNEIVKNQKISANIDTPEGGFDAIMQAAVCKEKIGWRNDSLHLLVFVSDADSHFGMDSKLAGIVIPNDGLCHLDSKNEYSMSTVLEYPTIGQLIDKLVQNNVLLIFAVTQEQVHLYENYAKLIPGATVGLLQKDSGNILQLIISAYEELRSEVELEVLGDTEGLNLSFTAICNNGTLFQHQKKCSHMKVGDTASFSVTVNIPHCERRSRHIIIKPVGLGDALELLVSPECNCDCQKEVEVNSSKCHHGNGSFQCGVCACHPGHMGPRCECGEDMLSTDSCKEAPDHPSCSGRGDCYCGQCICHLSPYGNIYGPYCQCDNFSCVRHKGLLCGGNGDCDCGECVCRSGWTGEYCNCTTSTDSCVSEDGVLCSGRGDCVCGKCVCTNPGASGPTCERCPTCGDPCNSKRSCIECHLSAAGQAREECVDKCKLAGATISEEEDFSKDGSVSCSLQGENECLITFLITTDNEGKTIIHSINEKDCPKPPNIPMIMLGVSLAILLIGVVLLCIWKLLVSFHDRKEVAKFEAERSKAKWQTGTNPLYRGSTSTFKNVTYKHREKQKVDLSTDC
# Sequence of Integrin alpha-V/beta-1 (P05556 21-798 limits assumed): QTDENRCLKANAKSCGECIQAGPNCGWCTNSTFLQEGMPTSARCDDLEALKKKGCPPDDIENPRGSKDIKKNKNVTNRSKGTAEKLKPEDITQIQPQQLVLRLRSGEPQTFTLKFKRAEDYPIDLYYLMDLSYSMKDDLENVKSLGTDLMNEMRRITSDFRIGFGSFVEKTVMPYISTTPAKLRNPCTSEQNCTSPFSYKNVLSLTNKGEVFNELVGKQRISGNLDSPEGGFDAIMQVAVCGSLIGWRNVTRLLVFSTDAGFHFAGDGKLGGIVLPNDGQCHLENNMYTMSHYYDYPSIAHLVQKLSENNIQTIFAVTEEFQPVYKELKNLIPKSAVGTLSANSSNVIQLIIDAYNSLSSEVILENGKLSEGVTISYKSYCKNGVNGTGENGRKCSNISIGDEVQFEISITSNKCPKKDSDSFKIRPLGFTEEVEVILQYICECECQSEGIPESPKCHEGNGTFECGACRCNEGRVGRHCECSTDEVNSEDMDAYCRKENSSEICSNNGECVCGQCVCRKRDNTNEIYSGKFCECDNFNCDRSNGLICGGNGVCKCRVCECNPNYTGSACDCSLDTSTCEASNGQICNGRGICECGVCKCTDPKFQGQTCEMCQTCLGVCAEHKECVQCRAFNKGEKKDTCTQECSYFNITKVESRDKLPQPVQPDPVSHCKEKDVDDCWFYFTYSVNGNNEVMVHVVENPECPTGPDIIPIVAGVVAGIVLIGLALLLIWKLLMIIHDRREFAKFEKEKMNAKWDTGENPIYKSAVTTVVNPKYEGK
# Sequence of Integrin alpha-V/beta-1 (P06756 31-889 limits assumed): as the sequence (P06756 31-889 limits assumed) above
# Sequence of Integrin alpha-V/beta-1 (P06756 891-1048 limits assumed): as the sequence (P06756 891-1048 limits assumed) above
IC50 (Integrin alpha-V/beta-1) [µM],IC50 (Integrin alpha-V/beta-3) [µM],IC50 (Integrin alpha-V/beta-5) [µM],IC50 (Integrin alpha-V/beta-8) [µM],IC50 (Integrin alpha-V/beta-6 [1]) [µM],Kinetic_solubility [2],chromatographic logD (physchem [3]),Compound,other results
3.98,3.98,0.0794,0.2,0.0126,Soluble,1.9,C[N+]1(C[C@@H](CC(=O)[O-])c2cccc(O[C@@H]3CCOC3)c2)CC[C@@H](CCc2ccc3c(n2)NCCC3)C1 (mixture of isomers),–
–,–,–,–,–,–,–,Cc1cc(C)n(-c2cccc([C@H](CC(=O)O)CN3CC[C@@H](CCc4ccc5c(n4)NCCC5)C3)c2)n1.Cl [GSK-3008348],pKi [4]: 8.7; Drug metabolism [5]: 9.45 mL/min/g; Stability [6]: < 0.86 mL/min/g; clearance [7]: 56 mL/min/kg; CL free [8]: 150 mL/min/kg; Vd [9]: 2.1 L/kg
–,–,–,–,–,Soluble,2.3,O=C(O)C[C@H](CN1CC[C@@H](CCc2ccc3c(n2)NCCC3)C1)c1cccc(N2CCOCC2)c1,–
0.794,5.01,0.251,0.126,0.0126,Soluble,1.8,C[N+]1(C[C@@H](CC(=O)[O-])c2cccc(N3CCOCC3)c2)CC[C@@H](CCc2ccc3c(n2)NCCC3)C1 (mixture of isomers),–
2,> 10,1,0.0631,0.00316,Soluble,2.4,Cc1cc(C)n(-c2cccc([C@H](CC(=O)[O-])C[N@+]3(C)CC[C@@H](CCc4ccc5c(n4)NCCC5)C3)c2)n1,Ki (Integrin alpha-V/beta-6 [10]): 0.000174 µM; Ratio IC50 (Homo sapiens [11]): 10 to 1000; Ratio IC50 (Homo sapiens [12]): 10 to 1000; Ratio IC50 (Homo sapiens [13]): 10 to 1000; Ratio IC50 (Homo sapiens [14]): 10 to 1000
–,–,–,–,–,–,–,CC(C)(C)c1cc(Br)cc([C@H](CC(=O)O)NC(=O)CNC(=O)c2cc(O)cc(NC3=NCC(O)CN3)c2)c1 (stereo partly specified),IC50 [15]: 0.0002 µM
5.01,–,> 10,1.26,0.0398,Soluble,2.8,CC[N@+]1(C[C@@H](CC(=O)[O-])c2cccc(-n3nc(C)cc3C)c2)CC[C@@H](CCc2ccc3c(n2)NCCC3)C1,–
1.58,6.31,0.631,0.1,–,Soluble,2.1,Cc1ccnn1-c1cccc([C@H](CC(=O)[O-])C[N+]2(C)CC[C@@H](CCc3ccc4c(n3)NCCC4)C2)c1 (mixture of isomers),–
0.631,6.31,0.501,0.0794,0.00316,–,2.5,Cc1cc(C)n(-c2cccc([C@H](CC(=O)[O-])C[N@@+]3(C)CC[C@@H](CCc4ccc5c(n4)NCCC5)C3)c2)n1,"Ki (Integrin alpha-V/beta-6 [10]): 0.000107 µM; Ratio IC50 (Homo sapiens [11]): 10 to 1000; Ratio IC50 (Homo sapiens [12]): 10 to 1000; Ratio IC50 (Homo sapiens [13]): 10 to 1000; Ratio IC50 (Homo sapiens [14]): 10 to 1000; IC50 [16]: > 50.1 µM; Drug metabolism [5]: 1.22 mL/min/g; Stability [6]: < 0.45 mL/min/g; fraction unbound at 4 h, 1 ug/ml [17]: 0.583; fraction unbound at 4 h, 1 ug/ml [18]: 0.503; fraction unbound at 4 h, 1 ug/ml [19]: 0.097; Drug metabolism [20]: Metabolite not detected; clearance [21]: 87.6 mL/min/kg; CL free [22]: 190 mL/min/kg; Vd [23]: 1.1 L/kg; half-life [24]: 13.2 min; Papp (in vitro): < 0.8 ×10⁻⁶ cm/s; solubility kinetic (physchem [25]): > 1000 µg/mL"
